Assay results taken from US20220153732A1, “PROTEIN SECRETION INHIBITORS” (KEZAR LIFE SCIENCES, priority 2019, published 2022).
pEC50, pIC50: −log10 of the molar value. Where two headings read alike, the source gives them in different places.

Experiments:
Format in all cases: cell-based
[1] = tested on: IL-2-FL/Gaussia Luciferase; experiment: Dox Induced IL2-FL-Gluc Assay; conditions: 293FRT/TO cells, read-out: 24 hr Dox Inducible IL2FLGIuc 293FRT/TO: Mean IC50
In short: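 Stable T-REx cell line expressing doxycycline-inducible IL-2-FL/Gaussia luciferase cDNA, plated the day before assay. Compound dilutions in DMSO/media containing doxycycline added and incubated at 37° C., 5% CO2. Unspecified stereochemistry means data refer to a stereoisomer mixture.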

[2] = tested on: HER3-ss+4aa/Gaussia Luciferase; experiment: Dox-Induced Her3-ss-Gluc Assay; conditions: 293FRT/TO cells, read-out: 24 hr Dox Inducible Her3(ss + 4)Gluc 293FRT/TO: Mean IC50
In short: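 Stable T-REx cell line carrying a doxycycline-regulated HER3-ss+4aa/Gaussia luciferase insert, plated the day before assay. Compound dilutions in DMSO/media with doxycycline added, then incubated at 37° C., 5% CO2. Stereoisomer mixtures tested where stereochemistry is not drawn.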

[3] = tested on: human multiple myeloma cell line U266B1; experiment: U266 Cell Viability Assay; conditions: U-266, 48 hr, U266B1 cells, Celltiter-Glo, read-out: 48 hr U266 Viability Celltiter-Glo: Mean EC50
In short: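 U266B1 myeloma cells treated with compound dilutions in DMSO/media for 48 h at 37 °C, 5% CO2. Viability read by CellTiter-Glo luminescence. Stereochemically undefined structures were tested as stereoisomer mixtures.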

[4] = tested on: human multiple myeloma cell line NCI-H929; experiment: H929 Cell Viability Assay; conditions: 48 hr, NCI-H929 cells, Celltiter-Glo, read-out: 48 hr H929 Viability Celltiter-Glo: Mean EC50
Protocol: Plates were incubated at 37° C., 5% CO2 for 48 hours. After 48 hours, Celltiter-Glo® (Promega) was added to each well and luciferase signal was quantified using Tecan Infinite M1000 Pro for cell viability determination.
For chemical structures that include one or more stereoisomers, but are illustrated without indicating stereochemistry, the assay data refers to a mixture of stereoisomers.

[5] = tested on: PD1-ss+10aa/Gaussia Luciferase; experiment: Dox-Induced PD1-ss-Gluc Assay; conditions: 293FRT/TO cells, read-out: 24 hr Dox Inducible PD1ssGluc 293FRT/TO: Mean IC50
In short: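 Stable cell line carrying PD1-ss+10aa/Gaussia luciferase cDNA under T-REx (doxycycline-inducible) control, plated the day before assay. Compound dilutions in DMSO/media containing doxycycline added and incubated at 37° C, 5% CO2. Undefined stereocentres: data refer to stereoisomer mixtures.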

[6] = tested on: TNFα-FL/Gaussia Luciferase; experiment: Dox Induced TNFα-FL-Gluc Assay; conditions: 293FRT/TO cells, read-out: 24 hr Dox Inducible TNFaFLGluc 293FRT/TO: Mean IC50
In short: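 A stable T-REx cell line carrying doxycycline-inducible TNFα-FL/Gaussia luciferase was plated the day before assay. Compound dilutions in DMSO/media containing doxycycline were then added and incubated at 37° C, 5% CO2.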

[7] = 24 hr doxycycline induction, Gaussia luciferase signal

Row | pIC50 [1, 7] | pIC50 [2, 7] | pEC50 [3] | pEC50 [4] | pIC50 [5, 7] | pIC50 [6, 7] | pIC50 ([1]; 24 hr, doxycycline-induced) | pIC50 ([2]; 24 hr, doxycycline-induced) | pIC50 ([5]; 24 hr, doxycycline-induced) | pIC50 ([6]; 24 hr, doxycycline-induced) | SMILES
1 | 5.58 | 6.02 | 4.79 | 5.24 | 6.61 | 5.05 | – | – | – | – | COc1cccc(/C=C/c2csc(NC(=O)c3cccn3Cc3ccncc3)n2)c1 [Compound A159, N-(4-(3-methoxystyryl)thiazol-2-yl)-1-(pyridin-4-ylmethyl)-1H-pyrrole-2-carboxamide]
2 | 6.31 | 6.25 | < 4.60 | 5.05 | 6.49 | 5.42 | – | – | – | – | CC(C)(CCc1ccccc1)c1csc(NC(=O)c2cccn2Cc2ccncc2)n1 [Compound A225, N-(4-(2-methyl-4-phenylbutan-2-yl)thiazol-2-yl)-1-(pyridin-4-ylmethyl)-1H-pyrrole-2-carboxamide]
3 | – | – | < 4.60 | < 4.60 | – | – | 4.98 | 5.21 | 5.70 | < 4.60 | O=C(Nc1nc(C2CCN(Cc3ccccc3)CC2)cs1)c1cccn1Cc1ccncc1 [Compound A302]
4 | 5.92 | 6.19 | < 4.60 | 4.68 | 6.57 | 5.54 | – | – | – | – | COc1cccc(CCc2csc(NC(=O)c3cccn3Cc3ccncc3)n2)c1 [Compound A176]
5 | < 4.60 | < 4.60 | < 4.60 | < 4.60 | < 4.60 | < 4.60 | – | – | – | – | CC(C)OC(C)(C)c1csc(NC(=O)c2cccn2CC2CCN(C)CC2)n1 [Compound A129, N-(4-(2-isopropoxypropan-2-yl)thiazol-2-yl)-1-((1-methylpiperidin-4-yl)methyl)-1H-pyrrole-2-carboxamide]
6 | 6.98 | 7.21 | 4.65 | 5.79 | 7.54 | 6.41 | – | – | – | – | CC(OC(C)(C)c1csc(NC(=O)c2cccn2Cc2ccncc2)n1)c1cccc(Cl)c1 (stereo not drawn) [Compound A2, N-(4-(2-(1-(3-chlorophenyl)ethoxy)propan-2-yl)thiazol-2-yl)-1-(pyridin-4-ylmethyl)-1H-pyrrole-2-carboxamide]
7 | 6.13 | 6.40 | 4.98 | 5.16 | 6.82 | 6.04 | – | – | – | – | O=C(Nc1nc(C#Cc2ccccc2Cl)cs1)c1cccn1Cc1ccncc1 [Compound A144]
8 | – | – | < 4.60 | 4.94 | – | – | 6.21 | 6.20 | 6.44 | 5.44 | CC(C)(/C=C/c1ccccc1)c1csc(NC(=O)c2cccn2Cc2ccncc2)n1 [Compound A293, N-(4-(2-methyl-4-phenylbut-3-en-2-yl)thiazol-2-yl)-1-(pyridin-4-ylmethyl)-1H-pyrrole-2-carboxamide]
9 | 5.98 | 6.25 | < 4.60 | < 4.60 | 6.62 | 5.27 | – | – | – | – | COc1cccc(C#Cc2csc(NC(=O)c3cccn3Cc3ccncc3)n2)c1 [Compound A142]
10 | < 4.60 | < 4.60 | < 4.60 | < 4.60 | < 4.60 | < 4.60 | – | – | – | – | CC(C)OC1(c2csc(NC(=O)c3cccn3Cc3ccncc3)n2)CC1 [Compound A123]
11 | < 4.60 | < 4.60 | < 4.60 | < 4.60 | < 4.60 | < 4.60 | – | – | – | – | CC(C)OC(C)(C)c1csc(NC(=O)c2cc(CO)cn2Cc2ccncc2)n1 [Compound A113, 4-(hydroxymethyl)-N-(4-(2-isopropoxypropan-2-yl)thiazol-2-yl)-1-(pyridin-4-ylmethyl)-1H-pyrrole-2-carboxamide]
12 | – | – | < 4.60 | 4.67 | – | – | 6.42 | 6.26 | 6.72 | 5.55 | O=C(Nc1nc([C@@H]2COCCN2c2ccccc2)cs1)c1cccn1Cc1ccncc1 [Compound A337]
13 | 6.03 | 6.14 | < 4.60 | 5.03 | 6.47 | 5.44 | – | – | – | – | CC(C)(COc1ccccc1)c1csc(NC(=O)c2cccn2Cc2ccncc2)n1 [Compound A228]
14 | – | – | < 4.60 | < 4.60 | – | – | 4.98 | 4.90 | 5.49 | < 4.60 | CC(C)c1coc(NC(=O)c2cccn2Cc2ccncc2)n1 [Compound B5, N-(4-isopropyloxazol-2-yl)-1-(pyridin-4-ylmethyl)-1H-pyrrole-2-carboxamide]
15 | 6.26 | 6.72 | 5.38 | 5.39 | 7.13 | 5.82 | – | – | – | – | CO[C@H]1CC[C@@H](/C=C/c2csc(NC(=O)c3cccn3Cc3ccncc3)n2)CC1 [Compound A254, N-(4-(2-((1s,4s)-4-methoxycyclohexyl)vinyl)thiazol-2-yl)-1-(pyridin-4-ylmethyl)-1H-pyrrole-2-carboxamide]
16 | < 4.60 | < 4.60 | < 4.60 | < 4.60 | 4.71 | < 4.60 | – | – | – | – | CCN(C(=O)c1cccn1Cc1ccncc1)c1nc(C)cs1 [Compound A98]
17 | < 4.60 | < 4.60 | < 4.60 | < 4.60 | < 4.60 | < 4.60 | – | – | – | – | CC(C)OC(C)(C)c1csc(NC(=O)c2cccn2Cc2ccc(=O)n(C)c2)n1 [Compound A124, N-(4-(2-isopropoxypropan-2-yl)thiazol-2-yl)-1-((1-methyl-6-oxo-1,6-dihydropyridin-3-yl)methyl)-1H-pyrrole-2-carboxamide]
18 | 6.05 | 5.53 | < 4.60 | < 4.60 | 5.97 | 4.75 | – | – | – | – | Cc1cccc2sc(NC(=O)c3cccn3Cc3ccncc3)nc12 [Compound A46]
19 | 5.56 | 5.56 | < 4.60 | < 4.60 | 5.68 | < 4.60 | – | – | – | – | CC(C)OC(C)(C)c1csc(NC(=O)c2cccn2CCCc2ccccc2Cl)n1 [Compound A68, 1-(3-(2-chlorophenyl)propyl)-N-(4-(2-isopropoxypropan-2-yl)thiazol-2-yl)-1H-pyrrole-2-carboxamide]
20 | 5.92 | 5.72 | < 4.60 | 4.76 | 5.86 | 4.72 | – | – | – | – | CC(C)OC(C)(C)c1csc(NC(=O)c2cccn2Cc2ccc([N+](=O)[O-])cc2)n1 [Compound A53, N-(4-(2-isopropoxypropan-2-yl)thiazol-2-yl)-1-(4-nitrobenzyl)-1H-pyrrole-2-carboxamide]
21 | 5.36 | 5.67 | < 4.60 | < 4.60 | 6.63 | 4.80 | – | – | – | – | O=C(Nc1nc(/C=C/C2CCCCO2)cs1)c1cccn1Cc1ccncc1 (stereo not drawn) [Compound A155, 1-(pyridin-4-ylmethyl)-N-(4-(2-(tetrahydro-2H-pyran-2-yl)vinyl)thiazol-2-yl)-1H-pyrrole-2-carboxamide]
22 | 6.20 | 6.48 | < 4.60 | < 4.60 | 7.07 | 5.43 | – | – | – | – | O=C(Nc1nc(/C=C/c2ccc(F)cc2)cs1)c1cccn1Cc1ccncc1 [Compound A220, N-(4-(4-fluorostyryl)thiazol-2-yl)-1-(pyridin-4-ylmethyl)-1H-pyrrole-2-carboxamide]
23 | – | – | < 4.60 | < 4.60 | – | – | < 4.60 | < 4.60 | < 4.60 | < 4.60 | O=C(Nc1ncc([N+](=O)[O-])s1)c1cccn1Cc1ccncc1 [Compound B17]
24 | 5.14 | < 4.60 | < 4.60 | < 4.60 | 5.04 | < 4.60 | – | – | – | – | O=C(Nc1nc(N2CCCC(c3ccccc3)C2)cs1)c1cccn1Cc1ccncc1 (stereo not drawn) [Compound A265]
